11 compounds from ChEMBL document CHEMBL3351862, “Coumarin hybrids as novel therapeutic agents” (Bioorg Med Chem, 2014) can be followed below.

One experiment deals with KB. The experiment can be described thus: Anticancer activity against human KB cells. The experiment is classed as functional, cell-based.
Experiment [1] relates to Human immunodeficiency virus. The experiment can be described thus: Antiviral activity against Human immunodeficiency virus. The format is functional, organism-based. The conditions noted are these: Human immunodeficiency virus 1.
A further experiment concerns the target Acetylcholinesterase (Homo sapiens, UniProt P22303). In words: Inhibition of AChE (unknown origin).
A further experiment has as its system Staphylococcus aureus. The experiment can be described thus: Antimicrobial activity against methicillin-resistant Staphylococcus aureus. The format is functional.
Experiment [2] deals with T1, Cholinesterase (Homo sapiens, UniProt P06276). In words: Inhibition of BuChE (unknown origin).
T1 sequence (P06276 whole entry): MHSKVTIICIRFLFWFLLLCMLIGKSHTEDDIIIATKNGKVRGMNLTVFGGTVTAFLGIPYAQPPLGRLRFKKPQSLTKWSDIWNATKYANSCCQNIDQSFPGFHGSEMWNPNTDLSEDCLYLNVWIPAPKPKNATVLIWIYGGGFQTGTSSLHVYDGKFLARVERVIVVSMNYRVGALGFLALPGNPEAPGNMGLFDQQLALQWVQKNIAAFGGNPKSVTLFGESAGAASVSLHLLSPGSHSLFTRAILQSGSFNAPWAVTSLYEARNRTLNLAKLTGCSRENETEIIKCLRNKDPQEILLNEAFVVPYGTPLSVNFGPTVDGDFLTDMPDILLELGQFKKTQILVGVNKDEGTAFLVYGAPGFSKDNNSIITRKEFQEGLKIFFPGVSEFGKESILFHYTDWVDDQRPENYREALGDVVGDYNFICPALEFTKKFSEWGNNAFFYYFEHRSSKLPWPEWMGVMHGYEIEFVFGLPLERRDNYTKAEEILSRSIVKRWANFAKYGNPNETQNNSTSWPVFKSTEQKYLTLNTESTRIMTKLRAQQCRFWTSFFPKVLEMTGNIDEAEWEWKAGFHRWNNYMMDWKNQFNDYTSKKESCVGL
For experiment [3], the target named is T1, Cholinesterase. In words: Ratio of galamthamine IC50 to compound IC50 for BuChE (unknown origin).
The next experiment relates to SK-OV-3. In words: Growth inhibition of human SKOV3 cells at 50 uM. The note with it: read-out: GI. The experiment is classed as functional.
Another experiment relates to CCRF-CEM. In words: Growth inhibition of human CCRF-CEM cells at 50 uM. The experiment is classed as functional. The note with it: read-out: GI.
For a further experiment, the system named is MCF7. The experiment can be described thus: Growth inhibition of human MCF7 cells at 50 uM. The experiment is classed as functional. The note with it: read-out: GI.
Experiment [4] concerns the target Proto-oncogene tyrosine-protein kinase Src (Homo sapiens, UniProt P12931). In words: Inhibition of Src kinase (unknown origin).
The subject of another experiment is Platelet. In words: Inhibition of platelet (unknown origin) aggregation. The experiment is classed as functional, cell-based.
The test system of experiment [5] is Human immunodeficiency virus 1. The experiment can be described thus: Antiviral activity against Human immunodeficiency virus 1 3B. The format is functional, organism-based.
The test system of experiment [6] is Human immunodeficiency virus 2. The experiment can be described thus: Antiviral activity against Human immunodeficiency virus 2 ROD. The experiment is classed as functional, organism-based. The note with it: Human immunodeficiency virus 2, ISOLATE ROD.
For experiment [7], the system named is Human immunodeficiency virus 1. The experiment can be described thus: Antiviral activity against Human immunodeficiency virus 1 harboring reverse transcriptase K103N/Y181C double mutant. The experiment is classed as functional, organism-based.

Each structure is given as a SMILES string. In brackets after ≈: the same amount, converted by molar mass.

Acetylcholinesterase, sequence (P22303 whole entry): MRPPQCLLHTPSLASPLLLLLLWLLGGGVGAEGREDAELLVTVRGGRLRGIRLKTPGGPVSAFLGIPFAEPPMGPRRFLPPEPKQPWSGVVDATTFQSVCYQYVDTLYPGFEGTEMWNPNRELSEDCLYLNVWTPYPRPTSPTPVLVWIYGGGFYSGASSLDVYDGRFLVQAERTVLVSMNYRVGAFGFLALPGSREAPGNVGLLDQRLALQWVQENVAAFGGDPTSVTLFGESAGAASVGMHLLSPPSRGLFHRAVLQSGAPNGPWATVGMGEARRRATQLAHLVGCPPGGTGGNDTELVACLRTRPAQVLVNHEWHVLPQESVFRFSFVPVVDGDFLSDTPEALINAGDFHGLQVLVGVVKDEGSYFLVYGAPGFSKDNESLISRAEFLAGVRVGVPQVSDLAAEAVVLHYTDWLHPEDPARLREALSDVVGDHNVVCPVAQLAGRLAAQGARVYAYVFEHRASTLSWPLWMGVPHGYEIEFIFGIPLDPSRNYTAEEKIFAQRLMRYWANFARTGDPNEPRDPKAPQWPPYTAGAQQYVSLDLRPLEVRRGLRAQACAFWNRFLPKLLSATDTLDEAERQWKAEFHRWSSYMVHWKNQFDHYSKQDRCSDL
Proto-oncogene tyrosine-protein kinase Src, sequence (P12931 2-536 limits assumed): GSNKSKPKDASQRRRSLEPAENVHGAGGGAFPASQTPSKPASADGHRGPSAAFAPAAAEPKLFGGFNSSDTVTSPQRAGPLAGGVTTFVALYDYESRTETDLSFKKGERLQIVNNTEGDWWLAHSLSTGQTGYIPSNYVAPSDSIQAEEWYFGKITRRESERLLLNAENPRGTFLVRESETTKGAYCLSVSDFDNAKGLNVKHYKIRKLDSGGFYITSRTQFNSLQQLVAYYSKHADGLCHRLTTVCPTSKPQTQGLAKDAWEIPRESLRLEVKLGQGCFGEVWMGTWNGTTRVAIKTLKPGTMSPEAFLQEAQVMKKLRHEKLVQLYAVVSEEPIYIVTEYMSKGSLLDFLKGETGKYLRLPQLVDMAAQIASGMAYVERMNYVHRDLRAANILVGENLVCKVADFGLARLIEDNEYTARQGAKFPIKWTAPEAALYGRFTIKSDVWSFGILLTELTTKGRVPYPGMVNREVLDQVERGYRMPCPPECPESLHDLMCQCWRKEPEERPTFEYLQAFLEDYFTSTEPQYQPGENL

As for `COc1cc(OC)cc(-c2cc3ccc(OC(C)=O)c(OC(C)=O)c3oc2=O)c1`, the IC50 (in general, the concentration that gives 50% inhibition) in the experiment on KB was determined as 5.18 mM.

For `O=c1oc2ccccc2cc1CSc1nc2cccnc2[nH]1`, the EC50 (as a rule, the concentration at which the effect is half-maximal) in experiment [1] came out at 6.8 µM.

`Cc1cc(=O)oc2cc(OCCN3CCN(CC(=O)Nc4c5c(nc6ccccc46)CCCC5)CC3)ccc12` returned an IC50 on Acetylcholinesterase of 92 nM.

In turn, `O=c1oc2ccccc2cc1CSc1nc2ccccc2o1` yielded a 50% effective concentration (EC50) in experiment [1] of 12 µM.

As for `O=c1oc2ccccc2c(O)c1-c1csc(Nc2cccc([N+](=O)[O-])c2)n1`, inhibition of growth with Staphylococcus aureus (MIC) required 31.2 µg/mL (≈ 81.9 µM).

Turning to `Cc1cc(=O)oc2cc(OCc3cn(Cc4cc(=O)oc5ccc(Cl)cc45)nn3)ccc12`, the MIC (in general, the least concentration at which growth counts as inhibited) against Staphylococcus aureus came to 6.25 µg/mL (≈ 13.9 µM).

The compound `Cc1cc(=O)oc2cc(OCCCCCCCN3CCN(CC(=O)Nc4c5c(nc6ccccc46)CCCC5)CC3)ccc12` displayed an IC50 against Cholinesterase [2] of 99 nM. Moreover, the Ratio IC50 at Cholinesterase [3] stood at 128.

Take `O=c1oc2ccccc2cc1CSc1nc2cncnc2[nH]1`: the concentration for a half-maximal effect (EC50) in [1] came to 2 µM.

For `COc1ccc(/C=C/C(=O)c2c(O)ccc3c(C)cc(=O)oc23)cc1O`, the inhibition of growth at 50 µM worked out at 63% in the experiment with SK-OV-3, 50% in the experiment with CCRF-CEM and 43% with MCF7. The compound further came in with an IC50 in experiment [4] of 14.5 µM.

`O=c1oc2ccc(O)cc2cc1-c1cc(O)cc(O)c1` yielded an IC50 in the experiment on Platelet of 10.6 µM.

Regarding `CCOC(=O)CNc1nc(Nc2ccc(C)cc2)nc(OCc2cc3ccccc3oc2=O)n1`, the half-inhibitory concentration (IC50) in experiment [5], in experiment [6] and in experiment [7] was 1 µg/mL (≈ 2.17 µM) in each case.
